Structures can show the parent of a compound that is named as a salt. Where two headings read alike, the source gives them in different places.
System: HIV-1 NL4-3 strain
Assay: Evaluation of antiviral activity: acute infection system of MT-4 cell with HIV-1 NL4-3 strain
Format: cell-based
[1] = Human immunodeficiency virus 1, NL43, MT4, 120 h, MT-4 cells infected with HIV-1 NL4-3 strain (MOI 0.05), cultured 5 days, Cell Titer-Glo, read-out: antiviral activity (EC50)
[2] = Human immunodeficiency virus 1, NL43, MT4, 120 h, read-out: antiviral activity (EC50), MT-4 cells infected with HIV-1 NL4-3 strain (MOI 0.05), cultured 5 days, Cell Titer-Glo

| Compound | EC50 [1] [nM] | EC50 [2] [nM] | also measured |
| --- | --- | --- | --- |
| CN(C)C(=O)[C@@H]1C[C@]12CN(C1CC1)C(=O)c1c(O)c(=O)c(C(=O)NCc3cccc(Cl)c3F)cn12 [Example T33, (1R,2R)-N^7′-(3-chloro-2-fluorobenzyl)-2′-cyclopropyl-9′-hydroxy-N^2,N^2-dimethyl-1′,8′-dioxo-1′,2′,3′,8′-tetrahydrospiro[cyclopropane-1,4′-pyrido[1,2-a]pyrazine]-2,7′-dicarboxamide] | 3.3 | – | – |
| COC[C@H]1C[C@@]12CN(C)C(=O)c1c(O)c(=O)c(C(=O)NCc3cc(N4CCCC4=O)cc(Cl)c3F)cn12 [Example T34, (1S,2S)-N-(3-chloro-2-fluoro-5-(2-oxopyrrolidin-1-yl)benzyl)-9′-hydroxy-2-(methoxymethyl)-2′-methyl-1′,8′-dioxo-1′,2′,3′,8′-tetrahydrospiro[cyclopropane-1,4′-pyrido[1,2-a]pyrazine]-7′-carboxamide] | 23 | – | – |
| CCOC[C@@H]1C[C@]12CN(C)C(=O)c1c(O)c(=O)c(C(=O)NCc3ccc(OC)c(Cl)c3F)cn12 [Example T35, (1R,2R)-N-(3-chloro-2-fluoro-4-methoxybenzyl)-2-(ethoxymethyl)-9′-hydroxy-2′-methyl-1′,8′-dioxo-1′,2′,3′,8′-tetrahydrospiro[cyclopropane-1,4′-pyrido[1,2-a]pyrazine]-7′-carboxamide hydrochloride] | – | 17 | – |
| COC[C@@H]1C[C@]12CN(C)C(=O)c1c(O)c(=O)c(C(=O)NCc3ccc(OC)c(Cl)c3F)cn12 [Example T36, (1R,2R)-N-(3-chloro-2-fluoro-4-methoxybenzyl)-9′-hydroxy-2-(methoxymethyl)-2′-methyl-1′,8′-dioxo-1′,2′,3′,8′-tetrahydrospiro[cyclopropane-1,4′-pyrido[1,2-a]pyrazine]-7′-carboxamide hydrochloride] | – | 10 | – |
| CCOc1ccc(CNC(=O)c2cn3c(c(O)c2=O)C(=O)N(C)C[C@@]32C[C@@H]2COC)c(F)c1Cl [Example T37, (1S,2S)-N-(3-chloro-4-ethoxy-2-fluorobenzyl)-9′-hydroxy-2-(methoxymethyl)-2′-methyl-1′,8′-dioxo-1′,2′,3′,8′-tetrahydrospiro[cyclopropane-1,4′-pyrido[1,2-a]pyrazine]-7′-carboxamide hydrochloride] | – | 93 | – |
| CCOc1ccc(CNC(=O)c2cn3c(c(O)c2=O)C(=O)N(C)C[C@]32C[C@H]2COC)c(F)c1Cl [Example T38, (1R,2R)-N-(3-chloro-4-ethoxy-2-fluorobenzyl)-9′-hydroxy-2-(methoxymethyl)-2′-methyl-1′,8′-dioxo-1′,2′,3′,8′-tetrahydrospiro[cyclopropane-1,4′-pyrido[1,2-a]pyrazine]-7′-carboxamide hydrochloride] | – | 77 | – |
| CCN1C(=O)c2c(O)c(=O)c(C(=O)NCc3ccc(F)cc3F)cn2C[C@@]12C[C@@H]2CO [Example T39, (1S,2S)-N-(2,4-difluorobenzyl)-2′-ethyl-9′-hydroxy-2-(hydroxymethyl)-1′,8′-dioxo-1′,2′,4′,8′-tetrahydrospiro[cyclopropane-1,3′-pyrido[1,2-a]pyrazine]-7′-carboxamide hydrochloride] | – | 2.8 | – |
| CCN1C(=O)c2c(O)c(=O)c(C(=O)NCc3ccc(F)cc3F)cn2C[C@@]12C[C@@H]2COC [Example T40, (1S,2S)-N-(2,4-difluorobenzyl)-2′-ethyl-9′-hydroxy-2-(methoxymethyl)-1′,8′-dioxo-1′,2′,4′,8′-tetrahydrospiro[cylcopropane-1,3′-pyrido[1,2-a]pyrazine]-7′-carboxamide hydrochloride] | 1.9 | – | – |
| COC[C@H]1C[C@@]12Cn1cc(C(=O)NCc3ccc(F)cc3F)c(=O)c(O)c1C(=O)N2C(C)C [Example T41, (1S,2S)-N-(2,4-difluorobenzyl)-9′-hydroxy-2′-isopropyl-2-(methoxymethyl)-1′,8′-dioxo-1′,2′,4′,8′-tetrahydrospiro[cyclopropane-1,3′-pyrido[1,2-a]pyrazine]-7′-carboxamide] | 2.2 | – | – |
| CC(C)N1C(=O)c2c(O)c(=O)c(C(=O)NCc3ccc(F)cc3F)cn2C[C@@]12C[C@@H]2CO [Example T42, (1S,2S)-N-(2,4-difluorobenzyl)-9′-hydroxy-2-(hydroxymethyl)-2′-isopropyl-1′,8′-dioxo-1′,2′,4′,8′-tetrahydrospiro[cyclopropane-1,3′-pyrido[1,2-a]pyrazine]-7′-carboxamide] | 3.7 | – | – |
| CCOC[C@H]1C[C@@]12Cn1cc(C(=O)NCc3ccc(F)cc3F)c(=O)c(O)c1C(=O)N2C(C)C [Example T43, (1S,2S)-N-(2,4-difluorobenzyl)-2-(ethoxymethyl)-9′-hydroxy-2′-isopropyl-1′,8′-dioxo-1′,2′,4′,8′-tetrahydrospiro[cyclopropane-1,3′-pyrido[1,2-a]pyrazine]-7′-carboxamide] | 5.3 | – | – |
| CCN1C(=O)c2c(O)c(=O)c(C(=O)NCc3cccc(Cl)c3F)cn2C[C@@]12C[C@@H]2CO [Example T44, (1S,2S)-N-(3-chloro-2-fluorobenzyl)-2′-ethyl-9′-hydroxy-2-(hydroxymethyl)-1′,8′-dioxo-1′,2′,4′,8′-tetrahydrospiro[cyclopropane-1,3′-pyrido[1,2-a]pyrazine]-7′-carboxamide hydrochloride] | – | 5.1 | – |
| CCOC[C@H]1C[C@@]12Cn1cc(C(=O)NCc3cccc(Cl)c3F)c(=O)c(O)c1C(=O)N2CC [Example T45, (1S,2S)-N-(3-chloro-2-fluorobenzyl)-2-(ethoxymethyl)-2′-ethyl-9′-hydroxy-1′,8′-dioxo-1′,2′,4′,8′-tetrahydrospiro[cyclopropane-1,3′-pyrido[1,2-a]pyrazine]-7′-carboxamide] | 4.4 | – | – |
| CCN1C(=O)c2c(O)c(=O)c(C(=O)NCc3cccc(Cl)c3F)cn2C[C@]12C[C@H]2CO [Example T46, (1R,2R)-N-(3-chloro-2-fluorobenzyl)-2′-ethyl-9′-hydroxy-2-(hydroxymethyl)-1′,8′-dioxo-1′,2′,4′,8′-tetrahydrospiro[cyclopropane-1,3′-pyrido[1,2-a]pyrazine]-7′-carboxamide hydrochloride] | – | 3.4 | – |
| CC(C)N1C(=O)c2c(O)c(=O)c(C(=O)NCc3cccc(Cl)c3F)cn2C[C@@]12C[C@@H]2CO [Example T47, (1S,2S)-N-(3-chloro-2-fluorobenzyl)-9′-hydroxy-2-(hydroxymethyl)-2′-isopropyl-1′,8′-dioxo-1′,2′,4′,8′-tetrahydrospiro[cyclopropane-1,3′-pyrido[1,2-a]pyrazine]-7′-carboxamide] | 4 | – | – |
| CCN1C(=O)c2c(O)c(=O)c(C(=O)NCc3ccc(OC)c(Cl)c3F)cn2C[C@@]12C[C@@H]2CO [Example T48, (1S,2S)-N-(3-chloro-2-fluoro-4-methoxybenzyl)-2′-ethyl-9′-hydroxy-2-(hydroxymethyl)-1′,8′-dioxo-1′,2′,4′,8′-tetrahydrospiro[cyclopropane-1,3′-pyrido[1,2-a]pyrazine]-7′-carboxamide hydrochloride] | – | 18 | – |
| CN1C(=O)c2c(O)c(=O)c(C(=O)NCc3cccc(Cl)c3F)cn2C[C@]12C[C@H]2CO [Example T49, (1R,2R)-N-(3-chloro-2-fluorobenzyl)-9′-hydroxy-2-(hydroxymethyl)-2′-methyl-1′,8′-dioxo-1′,2′,4′,8′-tetrahydrospiro[cyclopropane-1,3′-pyrido[1,2-a]pyrazine]-7′-carboxamide] | 7.2 | – | – |
| COC[C@@H]1C[C@]12Cn1cc(C(=O)NCc3cccc(Cl)c3F)c(=O)c(O)c1C(=O)N2C [Example T50, (1R,2R)-N-(3-chloro-2-fluorobenzyl)-9′-hydroxy-2-(methoxymethyl)-2′-methyl-1′,8′-dioxo-1′,2′,4′,8′-tetrahydrospiro[cyclopropane-1,3′-pyrido[1,2-a]pyrazine]-7′-carboxamide hydrochloride] | – | 3.7 | – |
| N-(3-chloro-2-fluorobenzyl)- 9′-hydroxy-cis-3-methoxy-2′- methyl-1′,8′-dioxo- 1′,2′,4′,8′- tetrahydrospiro[cyclobutane- 1,3′-pyrido[1,2-a]pyrazine]- 7′-carboxamide hydrochloride [Example S63] | – | – | EC50 (MT-4 cells infected with HIV-1 NL4-3 strain (MOI 0.05), cultured 5 days, Cell Titer-Glo, read-out: antiviral activity (EC50)): 4 nM |

Reference: patent US10087178B2, “Substituted spiropyrido[1,2-a]pyrazine derivative and medicinal use thereof as HIV integrase inhibitor” (priority 2012, dated 2018)
